# Measurements taken from patent US20100215579A1, “PHEN-NAPHTHALENE AND PHEN-QUINOLINE DERIVATIVES AND THEIR USE FOR BINDING AND IMAGING AMYLOID PLAQUES” (The Trustees of the University of Pennsylvania, priority 2007, published 2010).
# Legend:
# [1] = biological target: T1, amyloid plaques (Homo sapiens, UniProt P05067); test: Ki values of Phen-Nap, Nap-Phen derivatives (Ki binding data)
# T1 construct: fibrillary Aβ plaques consisting predominately of aggregates of Aβ40 and Aβ42 peptides
# [2] = Biodistribution in ICR mice after an iv injection; assay type: in vivo
# Description: Biodistribution in ICR Mice After an iv Injection of [^18F][4-(6-{2-[2-(2-Fluoro-ethoxy)-ethoxy]-ethoxy}-naphthalen-2-yl)-phenyl]-methyl-amine in 1% EtOH/0.1% BSA in Water
# (% dose/organ, avg of 3 mice±SD)
# (% dose/g, avg of 3 mice±SD)
# Biodistribution in ICR Mice After an iv Injection of [^18F]19a in 3% EtOH/0.1% BSA in Water
# Biodistribution in ICR Mice After an iv Injection of [^18F]34a in 5% EtOH/0.1% BSA in Water
# Biodistribution in ICR Mice After an iv Injection of [^18F]32a in 1% EtOH/0.1% BSA in Water
# [3] = Blood, 2 min after iv injection
# [4] = Blood, 30 min after iv injection
# [5] = Bone, 30 min after iv injection
# [6] = Brain, 2 min after iv injection
# [7] = Brain, 30 min after iv injection
# [8] = Heart, 2 min after iv injection
# [9] = Heart, 30 min after iv injection
# [10] = Kidney, 2 min after iv injection
# [11] = Kidney, 30 min after iv injection
# [12] = Kidney, 1 hr after iv injection
# [13] = Kidney, 2 hr after iv injection
# [14] = Liver, 2 min after iv injection
# [15] = Liver, 30 min after iv injection
# [16] = Lung, 30 min after iv injection
# [17] = Muscle, 2 min after iv injection
# [18] = Muscle, 30 min after iv injection
# [19] = Muscle, 1 hr after iv injection
# [20] = Muscle, 2 hr after iv injection
# [21] = Skin, 30 min after iv injection
# [22] = Spleen, 2 min after iv injection
# [23] = Spleen, 30 min after iv injection
# [24] = Spleen, 1 hr after iv injection
# [25] = Spleen, 2 hr after iv injection
# T1 sequence (P05067 672-713 limits assumed): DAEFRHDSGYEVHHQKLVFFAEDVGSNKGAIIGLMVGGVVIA
# T1 sequence (P05067 672-711 limits assumed): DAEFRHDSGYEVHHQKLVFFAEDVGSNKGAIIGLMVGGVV
smiles,measurement,setting,value
"Nc1ccc(-c2ccc3cc(OCCOCCOCCF)ccc3c2)cc1 [Compound 11a, 4-(6-(2-(2-(2-fluoroethoxy)ethoxy)ethoxy)naphthalen-2-yl)benzenamine]",Ki,[1],12.5 ± 1.2 nM
"Nc1ccc(-c2ccc3cc(OCCOCCOCCO)ccc3c2)cc1 [Compound 11b, 2-(2-(2-(6-(4-aminophenyl)naphthalen-2-yloxy)ethoxy)ethoxy)ethanol]",Ki,[1],22 nM
"CN(C)c1ccc(-c2ccc3cc(OCCOCCOCCF)ccc3c2)cc1 [Compound 12a, 4-(6-(2-(2-(2-fluoroethoxy)ethoxy)ethoxy)naphthalen-2-yl)-N,N-dimethylbenzenamine]",Ki,[1],3.1 nM
"CNc1ccc(-c2ccc3cc(OCCOCCOCCO)ccc3c2)cc1 [Compound 13b, 2-(2-(2-(6-(4-(methylamino)phenyl)naphthalen-2-yloxy)ethoxy)ethoxy)ethanol]",Ki,[1],1 nM
"Nc1ccc2cc(-c3ccc(O)cc3)ccc2c1 [Compound 16, 4-(6-aminonaphthalen-2-yl)phenol]",Ki,[1],33.5 ± 11 nM
"Nc1ccc2cc(-c3ccc(OCCOCCOCCF)cc3)ccc2c1 [Compound 17a, 6-(4-(2-(2-(2-fluoroethoxy)ethoxy)ethoxy)phenyl)naphthalen-2-amine]",Ki,[1],20 ± 5 nM
"Nc1ccc2cc(-c3ccc(OCCOCCOCCO)cc3)ccc2c1 [Compound 17b, 2-(2-(2-(4-(6-aminonaphthalen-2-yl)phenoxy)ethoxy)ethoxy)ethanol]",Ki,[1],27 nM
"CN(C)c1ccc2cc(-c3ccc(OCCOCCOCCF)cc3)ccc2c1 [Compound 18a, 6-(4-(2-(2-(2-fluoroethoxy)ethoxy)ethoxy)phenyl)-N,N-dimethylnaphthalen-2-amine]",Ki,[1],5.6 nM
"CN(C)c1ccc2cc(-c3ccc(OCCOCCOCCO)cc3)ccc2c1 [Compound 18b, 2-(2-(2-(4-(6-(dimethylamino)naphthalen-2-yl)phenoxy)ethoxy)ethoxy)ethanol]",Ki,[1],6.5 nM
"CNc1ccc2cc(-c3ccc(OCCOCCOCCF)cc3)ccc2c1 [Compound 19a, 6-(4-(2-(2-(2-fluoroethoxy)ethoxy)ethoxy)phenyl)-N-methylnaphthalen-2-amine]",Ki,[1],3 nM
"CNc1ccc2cc(-c3ccc(OCCOCCOCCO)cc3)ccc2c1 [Compound 19b, 2-(2-(2-(4-(6-(methylamino)naphthalen-2-yl)phenoxy)ethoxy)ethoxy)ethanol]",Ki,[1],6 nM
"COc1ccc(-c2ccc3cc(N(C)C)ccc3c2)cc1 [Compound 23, 6-(4-methoxyphenyl)-N,N-dimethylnaphthalen-2-amine]",Ki,[1],1.4 nM
"CN(C)c1ccc2cc(-c3ccc(O)cc3)ccc2c1 [Compound 24, 4-(6-(dimethylamino)naphthalen-2-yl)phenol]",Ki,[1],4.2 nM
"COc1ccc(-c2ccc3cc(O)ccc3c2)cc1 [Compound 25, 6-(4-methoxyphenyl)naphthalen-2-ol]",Ki,[1],1.5 nM
"Oc1ccc(-c2ccc3cc(OCCOCCOCCF)ccc3c2)cc1 [Compound 26, 4-(6-(2-(2-(2-fluoroethoxy)ethoxy)ethoxy)naphthalen-2-yl)phenol]",Ki,[1],16.5 nM
"Oc1ccc2cc(-c3ccc(OCCOCCOCCF)cc3)ccc2c1 [Compound 28, 6-(4-(2-(2-(2-fluoroethoxy)ethoxy)ethoxy)phenyl)naphthalen-2-ol]",Ki,[1],16 nM
"CN(C)c1ccc(-c2ccc3nc(OCCOCCOCCF)ccc3c2)cc1 [Compound 32a, 4-(2-(2-(2-(2-fluoroethoxy)ethoxy)ethoxy)quinolin-6-yl)-N,N-dimethylbenzenamine]",Ki,[1],4.4 nM
"CN(C)c1ccc(-c2ccc3nc(OCCOCCOCCO)ccc3c2)cc1 [Compound 32b, 2-(2-(2-(6-(4-(dimethylamino)phenyl)quinolin-2-yloxy)ethoxy)ethoxy)ethanol]",Ki,[1],4.7 nM
CNc1ccc(-c2ccc3cc(OCCOCCOCCF)ccc3c2)cc1 [[^18F][4-(6-{2-[2-(2-Fluoro-ethoxy)-ethoxy]-ethoxy}-naphthalen-2-yl)-phenyl]-methyl-amine],% dose/g,[2]; [3],2.08 ± 0.20 % dose/g
same,% dose/organ,[2]; [3],3.50 ± 0.18 % dose/organ
same,% dose/g,[2]; [4],1.72 ± 0.29 % dose/g
same,% dose/organ,[2]; [4],2.99 ± 0.48 % dose/organ
same,% dose/g,"[2]; Blood, 1 hr after iv injection",1.41 ± 0.33 % dose/g
same,% dose/organ,"[2]; Blood, 1 hr after iv injection",2.73 ± 0.41 % dose/organ
same,% dose/g,"[2]; Blood, 2 hr after iv injection",2.22 ± 0.37 % dose/g
same,% dose/organ,"[2]; Blood, 2 hr after iv injection",3.59 ± 0.53 % dose/organ
same,% dose/g,"[2]; Bone, 2 min after iv injection",2.14 ± 0.82 % dose/g
same,% dose/organ,"[2]; Bone, 2 min after iv injection",7.38 ± 3.40 % dose/organ
same,% dose/g,[2]; [5],0.97 ± 0.03 % dose/g
same,% dose/organ,[2]; [5],3.36 ± 0.09 % dose/organ
same,% dose/g,"[2]; Bone, 1 hr after iv injection",1.19 ± 0.21 % dose/g
same,% dose/organ,"[2]; Bone, 1 hr after iv injection",4.61 ± 0.36 % dose/organ
same,% dose/g,"[2]; Bone, 2 hr after iv injection",2.18 ± 0.19 % dose/g
same,% dose/organ,"[2]; Bone, 2 hr after iv injection",7.07 ± 0.57 % dose/organ
same,% dose/g,[2]; [6],7.26 ± 1.28 % dose/g
same,% dose/organ,[2]; [6],3.43 ± 0.51 % dose/organ
same,% dose/g,[2]; [7],2.15 ± 0.25 % dose/g
same,% dose/organ,[2]; [7],0.95 ± 0.08 % dose/organ
same,% dose/g,"[2]; Brain, 1 hr after iv injection",1.58 ± 0.18 % dose/g
same,% dose/organ,"[2]; Brain, 1 hr after iv injection",0.75 ± 0.06 % dose/organ
same,% dose/g,"[2]; Brain, 2 hr after iv injection",1.91 ± 0.12 % dose/g
same,% dose/organ,"[2]; Brain, 2 hr after iv injection",0.88 ± 0.06 % dose/organ
same,% dose/g,[2]; [8],5.44 ± 0.25 % dose/g
same,% dose/organ,[2]; [8],0.63 ± 0.08 % dose/organ
same,% dose/g,[2]; [9],2.04 ± 0.30 % dose/g
same,% dose/organ,[2]; [9],0.23 ± 0.02 % dose/organ
same,% dose/g,"[2]; Heart, 1 hr after iv injection",1.46 ± 0.24 % dose/g
same,% dose/organ,"[2]; Heart, 1 hr after iv injection",0.18 ± 0.01 % dose/organ
same,% dose/g,"[2]; Heart, 2 hr after iv injection",1.79 ± 0.19 % dose/g
same,% dose/organ,"[2]; Heart, 2 hr after iv injection",0.19 ± 0.03 % dose/organ
same,% dose/g,[2]; [10],8.88 ± 1.80 % dose/g
same,% dose/organ,[2]; [10],3.27 ± 0.60 % dose/organ
same,% dose/g,[2]; [11],3.98 ± 0.64 % dose/g
same,% dose/organ,[2]; [11],1.45 ± 0.12 % dose/organ
same,% dose/g,[2]; [12],2.75 ± 0.35 % dose/g
same,% dose/organ,[2]; [12],1.05 ± 0.25 % dose/organ
same,% dose/g,[2]; [13],2.52 ± 0.18 % dose/g
same,% dose/organ,[2]; [13],0.88 ± 0.10 % dose/organ
same,% dose/g,[2]; [14],19.7 ± 3.24 % dose/g
same,% dose/organ,[2]; [14],26.5 ± 2.18 % dose/organ
same,% dose/g,[2]; [15],13.4 ± 1.30 % dose/g
same,% dose/organ,[2]; [15],17.1 ± 1.54 % dose/organ
same,% dose/g,"[2]; Liver, 1 hr after iv injection",9.46 ± 1.50 % dose/g
same,% dose/organ,"[2]; Liver, 1 hr after iv injection",16.3 ± 1.39 % dose/organ
same,% dose/g,"[2]; Liver, 2 hr after iv injection",11.9 ± 1.87 % dose/g
same,% dose/organ,"[2]; Liver, 2 hr after iv injection",13.5 ± 1.77 % dose/organ
same,% dose/g,"[2]; Lung, 2 min after iv injection",5.73 ± 0.19 % dose/g
same,% dose/organ,"[2]; Lung, 2 min after iv injection",1.08 ± 0.05 % dose/organ
same,% dose/g,[2]; [16],2.78 ± 0.30 % dose/g
same,% dose/organ,[2]; [16],0.53 ± 0.10 % dose/organ
same,% dose/g,"[2]; Lung, 1 hr after iv injection",1.99 ± 0.26 % dose/g
same,% dose/organ,"[2]; Lung, 1 hr after iv injection",0.41 ± 0.05 % dose/organ
same,% dose/g,"[2]; Lung, 2 hr after iv injection",2.44 ± 0.37 % dose/g
same,% dose/organ,"[2]; Lung, 2 hr after iv injection",0.48 ± 0.16 % dose/organ
same,% dose/g,[2]; [17],1.21 ± 0.98 % dose/g
same,% dose/organ,[2]; [17],11.8 ± 9.69 % dose/organ
same,% dose/g,[2]; [18],1.27 ± 0.06 % dose/g
same,% dose/organ,[2]; [18],12.7 ± 0.64 % dose/organ
same,% dose/g,[2]; [19],0.92 ± 0.09 % dose/g
same,% dose/organ,[2]; [19],10.3 ± 0.54 % dose/organ
same,% dose/g,[2]; [20],0.97 ± 0.06 % dose/g
same,% dose/organ,[2]; [20],9.00 ± 0.56 % dose/organ
same,% dose/g,"[2]; Skin, 2 min after iv injection",1.01 ± 0.16 % dose/g
same,% dose/organ,"[2]; Skin, 2 min after iv injection",3.66 ± 0.74 % dose/organ
same,% dose/g,[2]; [21],1.90 ± 0.08 % dose/g
same,% dose/organ,[2]; [21],7.08 ± 0.26 % dose/organ
same,% dose/g,"[2]; Skin, 1 hr after iv injection",1.56 ± 0.18 % dose/g
same,% dose/organ,"[2]; Skin, 1 hr after iv injection",6.53 ± 0.12 % dose/organ
same,% dose/g,"[2]; Skin, 2 hr after iv injection",1.32 ± 0.09 % dose/g
same,% dose/organ,"[2]; Skin, 2 hr after iv injection",4.60 ± 0.29 % dose/organ
same,% dose/g,[2]; [22],5.11 ± 0.49 % dose/g
same,% dose/organ,[2]; [22],0.47 ± 0.03 % dose/organ
same,% dose/g,[2]; [23],2.12 ± 0.33 % dose/g
same,% dose/organ,[2]; [23],0.23 ± 0.01 % dose/organ
same,% dose/g,[2]; [24],1.81 ± 0.17 % dose/g
same,% dose/organ,[2]; [24],0.23 ± 0.02 % dose/organ
same,% dose/g,[2]; [25],2.08 ± 0.44 % dose/g
same,% dose/organ,[2]; [25],0.19 ± 0.03 % dose/organ
